On to `Cc1nc(C(=O)c2sc(NC(=O)c3ccncc3)nc2-c2ccco2)sc1C` [Compound 351, N-[5-(4,5-Dimethylthiazol-2-ylcarbonyl)-4-(2-furyl)thiazol-2-yl]pyridine-4-carboxamide], for which the melting point (usually the temperature of the solid-liquid transition) is 270 to 272 °C (dec.).
In turn, `Cn1ccc(C(=O)c2sc(NC(=O)c3ccncc3)nc2-c2ccco2)c1` [Compound 354, N-[4-(2-Furyl)-5-(1-methylpyrrol-3-ylcarbonyl)thiazol-2-yl]pyridine-4-carboxamide] came in with a melting point of 209 to 211 °C.
With `CCn1ccc(C(=O)c2sc(NC(=O)c3ccncc3)nc2-c2ccco2)c1` [Compound 355, N-[5-(1-Ethylpyrrol-3-ylcarbonyl)-4-(2-furyl)thiazol-2-yl]pyridine-4-carboxamide], the melting point was 127 to 134 °C.
Compound `O=C(Nc1nc(-c2ccco2)c(C(=O)c2ccn(Cc3ccccc3)c2)s1)c1ccncc1` [Compound 356, N-[5-(1-Benzylpyrrol-3-ylcarbonyl)-4-(2-furyl)thiazol-2-yl]pyridine-4-carboxamide] showed a melting point of 175 to 178 °C.
With `Cn1cc(C(=O)c2sc(NC(=O)c3ccncc3)nc2-c2ccco2)ccc1=O` [Compound 360, N-[4-(2-Furyl)-5-(1-methyl-2-oxo-1,2-dihydropyridin-5-ylcarbonyl)thiazol-2-yl]pyridine-4-carboxamide], the melting point was 294 to 295 °C.
As to `CCn1cc(C(=O)c2sc(NC(=O)c3ccncc3)nc2-c2ccco2)ccc1=O` [Compound 362, N-[5-(1-Ethyl-2-oxo-1,2-dihydropyridin-5-ylcarbonyl)-4-(2-furyl)thiazol-2-yl]pyridine-4-carboxamide], the melting point was 295 to 296 °C.
As for `O=C(Nc1nc(-c2ccco2)c(C(=O)c2ccc(=O)n(Cc3ccccc3)c2)s1)c1ccncc1` [Compound 364, N-[5-(1-Benzyl-2-oxo-1,2-dihydropyridin-5-ylcarbonyl)-4-(2-furyl)thiazol-2-yl]pyridine-4-carboxamide], the melting point was 265 to 282 °C (dec.).
On to `Cn1ccc(C(=O)c2sc(NC(=O)c3ccncc3)nc2-c2ccco2)cc1=O` [Compound 367, N-[4-(2-Furyl)-5-(1-methyl-2-oxo-1,2-dihydropyridin-4-ylcarbonyl)thiazol-2-yl]pyridine-4-carboxamide], for which the melting point is 243 to 255 °C (dec.).
The same measure for `CCn1ccc(C(=O)c2sc(NC(=O)c3ccncc3)nc2-c2ccco2)cc1=O` [Compound 369, N-[5-(1-Ethyl-2-oxo-1,2-dihydropyridin-4-ylcarbonyl)-4-(2-furyl)thiazol-2-yl]pyridine-4-carboxamide]: 277 to 281 °C; for `O=C(Nc1nc(-c2ccco2)c(C(=O)c2ccn(Cc3ccccc3)c(=O)c2)s1)c1ccncc1` [Compound 371, N-[5-(1-Benzyl-2-oxo-1,2-dihydropyridin-4-ylcarbonyl)-4-(2-furyl)thiazol-2-yl]pyridine-4-carboxamide]: 288 to 291 °C; for `O=C(Nc1nc(-c2ccco2)c(C(=O)c2cnccn2)s1)c1ccncc1` [Compound 374, N-[4-(2-Furyl)-5-(pyrazin-2-ylcarbonyl)thiazol-2-yl]pyridine-4-carboxamide]: more than 300 °C.
The same measure for `O=C(Nc1nc(-c2ccco2)c(C(=O)c2ccncn2)s1)c1ccncc1` [Compound 375, N-[4-(2-Furyl)-5-(pyrimidin-4-ylcarbonyl)thiazol-2-yl]pyridine-4-carboxamide]: more than 300 °C; for `O=C(Nc1nc(-c2ccco2)c(C(=O)c2cccnn2)s1)c1ccncc1` [Compound 376, N-[4-(2-Furyl)-5-(pyridazin-3-ylcarbonyl)thiazol-2-yl]pyridine-4-carboxamide]: 280 to 281 °C; for `CC(=O)c1sc(NC(=O)c2ccncc2)nc1-c1ccco1` [Compound 377, N-[5-Acetyl-4-(2-furyl)thiazol-2-yl]pyridine-4-carboxamide]: 252 to 259 °C (dec.).
Turning to `O=C(Nc1nc(-c2ccco2)c(C(=O)C(F)(F)F)s1)c1ccncc1` [Compound 380, N-[4-(2-Furyl)-5-(trifluoroacetyl)thiazol-2-yl]pyridine-4-carboxamide], the melting point was 268 to 270 °C.
For the compound `CCC(=O)c1sc(NC(=O)c2ccncc2)nc1-c1ccco1` [Compound 381, N-[4-(2-Furyl)-5-propionylthiazol-2-yl]pyridine-4-carboxamide], the melting point was 225 to 240 °C (dec.).
With `CCCC(=O)c1sc(NC(=O)c2ccncc2)nc1-c1ccco1` [Compound 382, N-[5-Butyryl-4-(2-furyl)thiazol-2-yl]pyridine-4-carboxamide], the melting point lay in the range of 191 to 194 °C.
In turn, `CCCC(=O)c1sc(NC(=O)C2CC2)nc1-c1ccco1` [Compound 385, N-[5-Butyryl-4-(2-furyl)thiazol-2-yl]cyclopropanecarboxamide] gave a melting point of 170 to 172 °C.
In turn, `CC(C)C(=O)c1sc(N)nc1-c1ccco1` [Compound 392, 2-Amino-4-(2-furyl)thiazol-5-yl isopropyl ketone] yielded a melting point of 195 to 199 °C.
With `CC(C)C(=O)c1sc(NC(=O)c2ccncc2)nc1-c1ccco1` [Compound 393, N-[4-(2-Furyl)-5-isobutyrylthiazol-2-yl]pyridine-4-carboxamide], the melting point was in the range of 179 to 182 °C.
The same measure for `CC(C)C(=O)c1sc(NC(=O)C2CC2)nc1-c1ccco1` [Compound 394, N-[4-(2-Furyl)-5-isobutyrylthiazol-2-yl]cyclopropane carboxamide]: 178 to 182 °C; for `CC(C)(C)C(=O)c1sc(NC(=O)c2ccncc2)nc1-c1ccco1` [Compound 400, N-[4-(2-Furyl)-5-pivaloylthiazol-2-yl]pyridine-4-carboxamide]: 240 to 245 °C.
`CC(C)(C)C(=O)c1sc(NC(=O)C2CC2)nc1-c1ccco1` [Compound 401, N-[4-(2-Furyl)-5-pivaloylthiazol-2-yl]cyclopropanecarboxamide] returned a melting point of 133 to 134 °C.
The compound `COCC(=O)c1sc(NC(=O)c2ccc(Cl)nc2)nc1-c1ccco1` [Compound 404, 2-Chloro-N-[4-(2-furyl)-5-(methoxyacetyl)thiazol-2-yl]pyridine-5-carboxamide] yielded a melting point of 174 to 183 °C.
Turning to `COCC(=O)c1sc(NC(=O)c2ccc(F)cc2)nc1-c1ccco1` [Compound 405, 4-Fluoro-N-[4-(2-furyl)-5-(methoxyacetyl)thiazol-2-yl]benzamide], the melting point was 166 to 167 °C.
`COCC#CC(=O)c1sc(NC(=O)c2ccncc2)nc1-c1ccco1` [Compound 413, N-[4-(2-Furyl)-5-(3-methoxypropa-1-ynylcarbonyl)thiazol-2-yl]pyridine-4-carboxamide] registered a melting point of 198 to 200 °C.
For the compound `O=C(Nc1nc(-c2ccco2)c(C(=O)C2CC2)s1)c1ccncc1` [Compound 417, N-[5-(Cyclopropylcarbonyl)-4-(2-furyl)thiazol-2-yl]pyridine-4-carboxamide], the melting point is 225 to 230 °C (dec.).
For the compound `COc1ccccc1C(=O)Nc1nc(-c2ccco2)c(C(=O)C2CC2)s1` [Compound 420, N-[5-(Cyclopropylcarbonyl)-4-(2-furyl)thiazol-2-yl]-2-methoxybenzamide], the melting point lay in the range of 150 to 154 °C.
As for `Nc1nc(-c2ccco2)c(C(=O)C2CCC2)s1` [Compound 423, 2-Amino-4-(2-furyl)thiazol-5-yl cyclobutyl ketone], the melting point was 125 to 160 °C (dec.).
With `O=C(Nc1nc(-c2ccco2)c(C(=O)C2CCC2)s1)c1ccncc1` [Compound 424, N-[5-(Cyclobutylcarbonyl)-4-(2-furyl)thiazol-2-yl]pyridine-4-carboxamide], the melting point was 227 to 235 °C (dec.).
The compound `O=C(Nc1nc(-c2ccco2)c(C(=O)C2CCC2)s1)c1ccco1` [Compound 425, N-[5-(Cyclobutylcarbonyl)-4-(2-furyl)thiazol-2-yl]furan-2-carboxamide] gave a melting point of 188 to 192 °C.
Take `N#Cc1ccc(C(=O)Nc2nc(-c3ccco3)c(C(=O)C3CCC3)s2)cc1` [Compound 426, 4-Cyano-N-[5-(cyclobutylcarbonyl)-4-(2-furyl)thiazol-2-yl]benzamide]: the melting point was 220 to 225 °C.
The figure for `O=C(Nc1nc(-c2ccco2)c(C(=O)C2CCC2)s1)C1CC1` [Compound 427, N-[5-(Cyclobutylcarbonyl)-4-(2-furyl)thiazol-2-yl]cyclopropanecarboxamide] is 200 to 205 °C; for `O=C(Nc1nc(-c2ccco2)c(C(=O)C2CCCC2)s1)C1CC1` [Compound 434, N-[5-(Cyclopentylcarbonyl)-4-(2-furyl)thiazol-2-yl]cyclopropanecarboxamide] it is 182 to 187 °C; for `O=C(c1sc(NC(=O)N2CCOCC2)nc1-c1ccco1)C1CCCC1` [Compound 435, N-[5-(Cyclopentylcarbonyl)-4-(2-furyl)thiazol-2-yl]-morpholine-4-carboxamide] it is 108 to 110 °C.
The figure for `COC1CCC(C(=O)c2sc(NC(=O)c3ccncc3)nc2-c2ccco2)CC1` (stereo not shown) [Compound 442, N-[4-(2-Furyl)-5-(4-methoxycyclohexylcarbonyl)thiazol-2-yl]pyridine-4-carboxamide] is 180 to 187 °C; for `COC1CCC(C(=O)c2sc(NC(=O)c3ccc(C#N)cc3)nc2-c2ccco2)CC1` (stereo not shown) [Compound 443, 4-Cyano-N-[4-(2-furyl)-5-(4-methoxycyclohexylcarbonyl)thiazol-2-yl]benzamide] it is 105 to 109 °C.
`O=C1CCC(C(=O)c2sc(NC(=O)c3ccncc3)nc2-c2ccco2)CC1` [Compound 448, N-[4-(2-Furyl)-5-(4-oxocyclohexylcarbonyl)thiazol-2-yl]pyridine-4-carboxamide] yielded a melting point of 206 to 212 °C.
`Cc1cc(C(=O)Nc2nc(-c3ccco3)c(C(=O)C3CCC(=O)CC3)s2)ccn1` [Compound 449, N-[4-(2-Furyl)-5-(4-oxocyclohexylcarbonyl)thiazol-2-yl]-2-methylpyridine-4-carboxamide] had a melting point of 108 to 115 °C.
Consider `O=C1CCC(C(=O)c2sc(NC(=O)c3ccco3)nc2-c2ccco2)CC1` [Compound 450, N-[4-(2-Furyl)-5-(4-oxocyclohexylcarbonyl)thiazol-2-yl]furan-2-carboxamide], for which the melting point lay within 232 to 235 °C.
